Measured values published in patent US9856270B2, “Dolutegravir salts” (Ratiopharm GmbH, priority 2013, dated 2018).
Counter-ions that a name gives are not always drawn. Blank lines part the entries; values can stand above or below the compound they belong to.

Tests used:
Type in all cases: physicochemical
[1] = Storage stability of solid state forms (polymorphic conversion, XRPD)
[2] = Determination of the dissolution, 1st experiment (approx. 350 mg in 5 ml solvent, 37° C., approx. 500 rpm, HPLC/UV); conditions: for concentration: 37° C.
Experimental: (§1) In the following examples, anhydrous Dolutegravir Na as disclosed in WO2010068253 is employed.
(§2) Approx. 350 mg test substance was weighed into a glass vial, followed by addition of 5 ml solvent. A stirring bar was added, the vial was fixed in a water bath at 37° C. and the suspension was stirred with approx. 500 rpm. After 1 h and 24 h, samples were withdrawn, filtered through a 0.2 μm disposable filter, 50 μl of the clear filtrate were diluted with 950 μl DMSO and 2 μl thereof were analyzed by HPLC/UV.
(§3) HPLC/UV-Method for Quantification of Dolutegravir • Instrument: Agilent 1200 (G3324) • Method: DOLUTEGRAVIR-SOL-G3324.M • Column: YMC Triart C18, 100*3.0 mm, 3.0μ • Flow: 0.6 ml/min. • Temperature: 40.0° C. • Eluent • A: acetonitrile • B: 0.2% formic acid+0.1% Heptafluorobutyric acid (HFBA)
(§4) A calibration curve was established by linear regression analysis of concentration/peak area data pairs obtained by twofold analysis of a set of calibration solutions containing dolutegravir at concentrations between 10 μg/ml and 1,000 μg/ml. In case that the peak area of dolutegravir in an analyzed sample exceeded the upper limit of the calibration range, the sample was diluted and re-analyzed.

[3] = Dissolution profile of tablet formulations (900 ml 0.1 N HCl, paddle, 100 rpm, 37° C.); conditions: tablets, FIG. 24
Experimental: The dissolution profile of the above potassium salt formulation in 900 ml of 0.1 N HCl, paddle (no sinker) at 100 rpm, 37° C. was tested. An aqueous solution comprising Pharmacoat 603 was prepared. The active, Granulac 200, SDS, Avicel PH 101 and Ac-Di-Sol were granulated with the before prepared solution. The obtained granules were sieved through 1650 μm mesh size and subsequently dried at 40° C. After sieving the dried granules through 630 μm mesh size, Prosolv and Ac-Di-Sol were added. The mixture was blended for 10 minutes in a Turbula […] tumble mixer. After addition of Magnesium stearate, blending was continued for 3 minutes. Finally, the blend was compressed into tablets on an eccentric press Ek0 with a 9 mm tablet punch. The dissolution profile of the above sodium salt formulation in 900 ml of 0.1 N HCl, paddle (no sinker) at 100 rpm, 37° C. was tested.

[4] = Determination of the dissolution, 2nd experiment (approx. 210 mg in 3 ml solvent, 37° C., approx. 250 rpm, HPLC/UV)
Experimental: as §1
as §2, with “Approx. 210” for “Approx. 350”, “of 3” for “of 5”, “approx. 250” for “approx. 500”, “After 5, 15” for “After 1 h”, “and 60 min,” for “and 24 h,”
as §3, §4

[5] = solvent 50 mM KH2PO4, pH 6.8, 5 min, potassium salt
[6] = solvent 50 mM KH2PO4, pH 6.8, 15 min, potassium salt
[7] = solvent 50 mM KH2PO4, pH 6.8, 60 min, potassium salt
[8] = solvent 0.1 N HCl, 5 min, potassium salt
[9] = solvent 0.1 N HCl, 15 min, potassium salt
[10] = solvent 0.1 N HCl, 60 min, potassium salt
[11] = solvent demineralized water, 5 min, potassium salt
[12] = solvent demineralized water, 15 min, potassium salt
[13] = solvent demineralized water, 60 min, potassium salt

stable upon storage (time) ([1]; 45° C./75% relative humidity): at least 8 weeks
Structure (SMILES): C[C@@H]1CCO[C@H]2Cn3cc(C(=O)NCc4ccc(F)cc4F)c(=O)c(O)c3C(=O)N12 [Dolutegravir potassium form IV, Dolutegravir potassium salt]

dissolution compared to the sodium salt ([2]; under certain conditions as depicted in Example 9): improved dissolution
dissolution rate of a pharmaceutical composition compared to the sodium salt [3]: faster and/or higher dissolution rate
Structure (SMILES): C[C@@H]1CCO[C@H]2Cn3cc(C(=O)NCc4ccc(F)cc4F)c(=O)c(O)c3C(=O)N12 [Dolutegravir potassium salt]

concentration ([2]; solvent 20 mM Sodium acetate (NaAc) pH 4.5, 1 h, potassium salt): 21770 µg/mL
concentration ([2]; solvent 20 mM Sodium acetate (NaAc) pH 4.5, 24 h, potassium salt): 16930 µg/mL
concentration ([2]; solvent 50 mM KH2PO4 pH 6.8, 1 h, potassium salt): 32580 µg/mL
concentration ([2]; solvent 50 mM KH2PO4 pH 6.8, 24 h, potassium salt): 33440 µg/mL
concentration ([2]; solvent 0.1M HCl pH1.2, 1 h, potassium salt): 20350 µg/mL
concentration ([2]; solvent 0.1M HCl pH1.2, 24 h, potassium salt): 20270 µg/mL
Structure (SMILES): C[C@@H]1CCO[C@H]2Cn3cc(C(=O)NCc4ccc(F)cc4F)c(=O)c(O)c3C(=O)N12 [Dolutegravir-K (Form VI), Dolutegravir potassium salt]

stable under storage conditions (time) ([1]; 25° C. and 60% RH, 30° C. and 65% RH and 40° C. and 75% RH): at least 8 weeks
concentration [4, 5]: 22000 µg/mL
concentration [4, 6]: 23900 µg/mL
concentration [4, 7]: 23300 µg/mL
concentration [4, 8]: 80 µg/mL
concentration [4, 9]: 23780 µg/mL
concentration [4, 10]: 25930 µg/mL
concentration [4, 11]: 39500 µg/mL
concentration [4, 12]: 44000 µg/mL
concentration [4, 13]: 44100 µg/mL
Structure (SMILES): C[C@@H]1CCO[C@H]2Cn3cc(C(=O)NCc4ccc(F)cc4F)c(=O)c(O)c3C(=O)N12 [Dolutegravir-K (Form VII), Dolutegravir potassium salt]

stable under storage condition (time) ([1]; 40° C./75% RH): at least 12 weeks
concentration [4, 5]: 39100 µg/mL
concentration [4, 6]: 40900 µg/mL
concentration [4, 7]: 60100 µg/mL
concentration [4, 8]: 300 µg/mL
concentration [4, 9]: 21260 µg/mL
concentration [4, 10]: 15400 µg/mL
concentration [4, 11]: 55600 µg/mL
concentration [4, 12]: 55100 µg/mL
concentration [4, 13]: 62300 µg/mL
Structure (SMILES): C[C@@H]1CCO[C@H]2Cn3cc(C(=O)NCc4ccc(F)cc4F)c(=O)c(O)c3C(=O)N12 [Dolutegravir-K (amorphous), Dolutegravir potassium salt]

concentration ([2]; solvent 20 mM Sodium acetate (NaAc) pH 4.5, 1 h): 595 µg/mL
concentration ([2]; solvent 20 mM Sodium acetate (NaAc) pH 4.5, 24 h): 634 µg/mL
concentration ([2]; solvent 50 mM KH2PO4 pH 6.8, 1 h): 894 µg/mL
concentration ([2]; solvent 50 mM KH2PO4 pH 6.8, 24 h): 918 µg/mL
concentration ([2]; solvent 0.1M HCl pH1.2, 1 h): 84 µg/mL
concentration ([2]; solvent 0.1M HCl pH1.2, 24 h): 412 µg/mL
concentration ([4]; solvent 50 mM KH2PO4, pH 6.8, 5 min): 270 µg/mL
concentration ([4]; solvent 50 mM KH2PO4, pH 6.8, 15 min): 1190 µg/mL
concentration ([4]; solvent 50 mM KH2PO4, pH 6.8, 60 min): 1240 µg/mL
concentration ([4]; solvent 0.1 N HCl, 5 min, listed as Dolutegravir-Na (anhydrous)): 330 µg/mL
concentration ([4]; solvent 0.1 N HCl, 15 min, listed as Dolutegravir-Na (anhydrous)): 420 µg/mL
concentration ([4]; solvent 0.1 N HCl, 60 min, listed as Dolutegravir-Na (anhydrous)): 400 µg/mL
concentration ([4]; solvent demineralized water, 5 min): 3300 µg/mL
concentration ([4]; solvent demineralized water, 15 min): 3430 µg/mL
concentration ([4]; solvent demineralized water, 60 min): 3500 µg/mL
Structure (SMILES): C[C@@H]1CCO[C@H]2Cn3cc(C(=O)NCc4ccc(F)cc4F)c(=O)c(O)c3C(=O)N12 [Dolutegravir-Na, reference compound]
